Experimental data published in patent US20070281302A1 (priority 1998, published 2007).
Entries after “also recorded” stand apart in the source; their conditions may differ. No end group written: not given here.

Key:
B. cereus T spores = type: binding, Bacillus cereus
[1] = tested on: B. thuringiensis subsp. kurstaki spores; type: binding, Bacillus thuringiensis
[2] = tested on: B. anthracis (Sterne and ΔAmes) spores; type: binding, Bacillus anthracis
[3] = tested on: spores of 15 of the other Bacillus strains; type: binding
[4] = tested on: Bacillus spores of each experiment shown in FIG. 3; type: binding
[5] = tested on: B. anthracis spores (delta-Ames, Sterne); type: binding, Bacillus anthracis
B. subtilis spores = type: binding, Bacillus subtilis
B. cereus T spore = type: binding, Bacillus cereus
spores of B. subtilis = type: binding, Bacillus subtilis
[6] = tested on: spores of B. thuringiensis subsp. kurstaki; type: binding, Bacillus thuringiensis
[7] = tested on: B. anthracis spores (Sterne, delta-Ames); type: binding, Bacillus anthracis
spores of B. cereus T = type: binding, Bacillus cereus
[8] = tested on: spores of the other Bacillus strains; type: binding
spores of B. cerues T = type: binding, Bacillus cereus
[9] = tested on: vegetative cells of the Sterne and ΔAmes strains; type: binding, Bacillus anthracis

## SLLPGLPGGGC-PE (PE conjugate)
B. cereus T spores
  binding of the conjugate to spores: extensive binding
[1]
  binding of the conjugate to spores: extensive binding
[2]
  binding of the conjugate to spores: no binding
[3]
  binding of the conjugate to spores: No peptide-conjugate binding was observed

## HWHHHGHGGGC (also: PE conjugate) [HWHHHGHGGGC-PE]
[4]
  spore binding of control peptide-PE conjugates: No significant binding

## TYPIPIR [Isolate 5 (Table 3)]
[5]
  number of phage containing the sequence: three

## NHFLPKV [Isolate 4 (Table 1)]
B. subtilis spores
  binding of the peptide to the spore: bound tightly
  eluted phage examined that contained the sequence: Seven of the ten
  enrichment of this phage: 700 fold

## THRLPSR [Sequence 1 (Table 5)]
B. cereus T spore
  number of phage containing the sequence: 1. (2)

## TYPIPFR [Isolate 6 (Table 3)]
[5]
  number of phage containing the sequence: three

## NHFL (B. subtilis)
Spores of B. subtilis
  binding to the spores (ligand quality): poor ligand

## ATYPLPIRGGGC-PE (PE conjugate)
[6]
  fluorescent labeling of spores: low-level but detectable binding
B. cereus T spores
  binding of the conjugate to spores: limited binding
  binding relative to TYPLPIRGGGC-PE: only slightly enhanced
[1]
  binding of the conjugate to spores: limited binding
  binding relative to TYPLPIRGGGC-PE: only slightly enhanced
[2]
  binding of the conjugate to spores: extensive binding
  enhancement of binding relative to TYPLPIRGGGC-PE: ~10 fold
[7]
  fluorescent labeling of spores: completely encircled by fluorescent ligand; also recorded: readily detectable
Spores of B. cereus T
  fluorescent labeling of spores: low-level but detectable binding
[8]
  fluorescent labeling of spores: not other strains; also recorded: essentially nonfluorescent
[3]
  binding of the conjugate to spores: did not permit detectable binding; also recorded: No peptide-conjugate binding was observed

## NHFLP (B. subtilis)
Spores of B. subtilis
  binding to the spores (ligand quality): tight binding

## WSPLHKH [Sequence 8 (Table 5)]
Spores of B. cerues T
  binding to spores: tight binding
  eluted phage that contained the sequence: Six of the twenty
  enrichment of this phage: 300 fold

## ILPRPYTGGGC (also: PE conjugate) [ILPRPYTGGGC-PE]
[4]
  spore binding of control peptide-PE conjugates: No significant binding

## LLSPLHR [Sequence 6 (Table 5)]
B. cereus T spore
  number of phage containing the sequence: 6. (2)

## TYPLPIRGGGC-PE (PE conjugate)
B. cereus T spores
  binding of the peptide-PE conjugate to spores, compared with B. anthracis spores: weaker (or less extensive)
[1]
  binding of the peptide-PE conjugate to spores, compared with B. anthracis spores: weaker (or less extensive)
[2]
  binding of the peptide-PE conjugate to spores: concentration-dependent binding
  effect of bovine serum albumin on conjugate binding: not inhibited
[3]
  binding of the peptide-PE conjugate to spores: did not bind
  binding of the peptide-PE conjugate to spores at the highest concentration: minimal binding
[9]
  binding to vegetative cells: did not bind

## TYPVPHR [Isolate 9 (Table 3)]
[5]
  number of phage containing the sequence: once
